# Measurements from PubChem BioAssay (NCI).
#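 These data come from cells grown in 96-well plates and exposed to compound for 48 hours at five concentrations. The concentration for 50% growth inhibition is given as GI50. TGI denotes the concentration required for complete inhibition of growth.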
# How the values were obtained:
# Assay in all cases: growth of human tumour cells (NCI), 48 h
# [1] = tested on: OVCAR-5 ovarian
# [2] = tested on: M14 melanoma
# [3] = tested on: BT-549 breast
# [4] = tested on: SF-539 CNS
# [5] = tested on: TK-10 renal
# [6] = tested on: MDA-MB-231 breast
# [7] = tested on: HS 578T breast
# [8] = tested on: SN12C renal
# [9] = tested on: HCT-116 colon
# [10] = tested on: COLO 205 colon
# [11] = tested on: MCF7 breast
# [12] = tested on: HOP-92 NSCLC
# [13] = tested on: SF-268 CNS
# [14] = tested on: SW-620 colon
# [15] = tested on: 786-0 renal
# [16] = tested on: KM12 colon
# [17] = tested on: SK-OV-3 ovarian
# [18] = tested on: DU-145 prostate
# [19] = tested on: NCI-H460 lung
# [20] = tested on: SNB-19 CNS
# [21] = tested on: NCI/ADR-RES ovarian
# [22] = tested on: A549 NSCLC
# [23] = tested on: UACC-257 melanoma
# [24] = tested on: HCC-2998 colon
# [25] = tested on: SNB-75 CNS
# [26] = tested on: HCT-15 colon
# [27] = tested on: NCI-H226 lung
# [28] = tested on: UACC-62 melanoma
# [29] = tested on: OVCAR-8 ovarian
# [30] = tested on: SK-MEL-28 melanoma
# [31] = tested on: OVCAR-4 ovarian
# [32] = tested on: SF-295 CNS
# [33] = tested on: MALME-3M melanoma
# [34] = tested on: NCI-H522 lung
# [35] = tested on: RPMI-8226 leukemia
# [36] = tested on: K-562 leukemia
# [37] = tested on: SK-MEL-2 melanoma
# [38] = tested on: U251 CNS
# [39] = tested on: RXF 393 renal
# [40] = tested on: HL-60(TB) leukemia
# [41] = tested on: CAKI-1 renal
# [42] = tested on: HOP-62 NSCLC
# [43] = tested on: MOLT-4 leukemia
# [44] = tested on: OVCAR-3 ovarian
# [45] = tested on: ACHN renal
# [46] = tested on: T-47D breast
# [47] = tested on: IGROV1 ovarian
# [48] = tested on: HT29 colon
# [49] = tested on: MDA-MB-435
# [50] = tested on: CCRF-CEM leukemia
# [51] = tested on: NCI-H23 lung
# [52] = tested on: PC-3 prostate
# [53] = tested on: A498 renal
# [54] = tested on: LOX IMVI melanoma
# [55] = tested on: UO-31 renal
# [56] = tested on: SR leukemia
# [57] = tested on: MDA-MB-468 breast
# [58] = tested on: SK-MEL-5 melanoma
# [59] = tested on: EKVX NSCLC
smiles,measurement,setting,value
Cc1cc2c(cc1Cl)C(=O)/C(=C/c1ccccc1)O2,GI50,[1],23.2 µM
same,TGI,[1],> 100 µM
same,GI50,[2],26 µM
same,TGI,[2],> 100 µM
same,GI50,[3],16.7 µM
same,TGI,[3],45.3 µM
same,GI50,[4],15.7 µM
same,TGI,[4],29.1 µM
same,GI50,[5],23.5 µM
same,TGI,[5],40.6 µM
same,GI50,[6],16.5 µM
same,TGI,[6],39.4 µM
same,GI50,[7],29.2 µM
same,TGI,[7],> 100 µM
same,GI50,[8],13.9 µM
same,TGI,[8],33.1 µM
same,GI50,[9],15.4 µM
same,TGI,[9],62.9 µM
same,GI50,[10],24.6 µM
same,TGI,[10],51.9 µM
same,GI50,[11],2.7 µM
same,TGI,[11],57.4 µM
same,GI50,[12],17.7 µM
same,TGI,[12],44.6 µM
same,GI50,[13],25.1 µM
same,TGI,[13],89.2 µM
same,GI50,[14],16.8 µM
same,TGI,[14],48.3 µM
same,GI50,[15],20 µM
same,TGI,[15],40.5 µM
same,GI50,[16],31.3 µM
same,TGI,[16],> 100 µM
same,GI50,[17],62.3 µM
same,TGI,[17],> 100 µM
same,GI50,[18],16.9 µM
same,TGI,[18],33.7 µM
same,GI50,[19],16 µM
same,TGI,[19],35.6 µM
same,GI50,[20],26.5 µM
same,TGI,[20],> 100 µM
same,GI50,[21],15.7 µM
same,TGI,[21],38.6 µM
same,GI50,[22],16.6 µM
same,TGI,[22],37.8 µM
same,GI50,[23],23.4 µM
same,TGI,[23],> 100 µM
same,GI50,[24],31.6 µM
same,TGI,[24],> 100 µM
same,GI50,[25],9.27 µM
same,TGI,[25],57.7 µM
same,GI50,[26],14.2 µM
same,TGI,[26],85.4 µM
same,GI50,[27],12.8 µM
same,TGI,[27],31.5 µM
same,GI50,[28],15.9 µM
same,TGI,[28],49.9 µM
same,GI50,[29],16.5 µM
same,TGI,[29],44.1 µM
same,GI50,[30],23.7 µM
same,TGI,[30],76.3 µM
same,GI50,[31],16.8 µM
same,TGI,[31],61.3 µM
same,GI50,[32],26 µM
same,TGI,[32],> 100 µM
same,GI50,[33],17.4 µM
same,TGI,[33],31.7 µM
same,GI50,[34],13 µM
same,TGI,[34],30.7 µM
same,GI50,[35],22.4 µM
same,TGI,[35],> 100 µM
same,GI50,[36],27.6 µM
same,TGI,[36],> 100 µM
same,GI50,[37],20.6 µM
same,TGI,[37],72 µM
same,GI50,[38],13.1 µM
same,TGI,[38],28.7 µM
same,GI50,[39],15 µM
same,TGI,[39],33.6 µM
same,GI50,[40],22.3 µM
same,TGI,[40],46.7 µM
same,GI50,[41],15.5 µM
same,TGI,[41],31.1 µM
same,GI50,[42],22.8 µM
same,TGI,[42],52.8 µM
same,GI50,[43],17.9 µM
same,TGI,[43],46 µM
same,GI50,[44],25.5 µM
same,TGI,[44],93.1 µM
same,GI50,[45],15.1 µM
same,TGI,[45],29 µM
same,GI50,[46],13.6 µM
same,TGI,[46],35.3 µM
same,GI50,[47],14 µM
same,TGI,[47],30.9 µM
same,GI50,[48],29 µM
same,TGI,[48],> 100 µM
same,GI50,[49],21.5 µM
same,TGI,[49],59.6 µM
same,GI50,[50],18.7 µM
same,TGI,[50],49.2 µM
same,GI50,[51],15.4 µM
same,TGI,[51],44.8 µM
same,GI50,[52],11.1 µM
same,TGI,[52],70.6 µM
same,GI50,[53],49.3 µM
same,TGI,[53],> 100 µM
same,GI50,[54],1.9 µM
same,TGI,[54],4.19 µM
same,GI50,[55],13.9 µM
same,TGI,[55],26.8 µM
same,GI50,[56],20.9 µM
same,TGI,[56],54.8 µM
same,GI50,[57],13.2 µM
same,TGI,[57],40.5 µM
same,GI50,[58],15.6 µM
same,TGI,[58],30.9 µM
same,GI50,[59],16.5 µM
same,TGI,[59],33.1 µM
Cn1cc(-c2cc(N)n3nc(-c4cn(C)c5ncccc45)cc3n2)c2cccnc21,GI50,[1],15.1 µM
same,TGI,[1],28.4 µM
same,GI50,[2],16 µM
same,TGI,[2],30.9 µM
same,GI50,[3],17.4 µM
same,TGI,[3],39.1 µM
same,GI50,[4],16.4 µM
same,TGI,[4],32.1 µM
same,GI50,[5],14.3 µM
same,TGI,[5],27.9 µM
same,GI50,[6],13.7 µM
same,TGI,[6],26.5 µM
same,GI50,[7],18.7 µM
same,TGI,[7],73.4 µM
same,GI50,[8],15.2 µM
same,TGI,[8],30.4 µM
same,GI50,[9],16.8 µM
same,TGI,[9],38.2 µM
same,GI50,[10],10.3 µM
same,TGI,[10],23.9 µM
same,GI50,[11],18.7 µM
same,TGI,[11],41.6 µM
same,GI50,[12],11.1 µM
same,TGI,[12],29.1 µM
same,GI50,[13],> 100 µM
same,TGI,[13],> 100 µM
same,GI50,[14],13.3 µM
same,TGI,[14],29.7 µM
same,GI50,[15],16.7 µM
same,TGI,[15],32.2 µM
same,GI50,[16],16.6 µM
same,TGI,[16],32.3 µM
same,GI50,[17],> 100 µM
same,TGI,[17],> 100 µM
same,GI50,[18],14.6 µM
same,TGI,[18],28.5 µM
same,GI50,[19],15.9 µM
same,TGI,[19],32.6 µM
same,GI50,[20],18.6 µM
same,TGI,[20],38.4 µM
same,GI50,[21],30.9 µM
same,TGI,[21],> 100 µM
same,GI50,[22],15.7 µM
same,TGI,[22],42 µM
same,GI50,[23],29.2 µM
same,TGI,[23],> 100 µM
same,GI50,[24],15.1 µM
same,TGI,[24],28.3 µM
same,GI50,[25],11.1 µM
same,TGI,[25],30.6 µM
same,GI50,[26],16.4 µM
same,TGI,[26],31.2 µM
same,GI50,[27],17.8 µM
same,TGI,[27],42.9 µM
same,GI50,[28],29 µM
same,TGI,[28],> 100 µM
same,GI50,[29],18.7 µM
same,TGI,[29],46 µM
same,GI50,[30],16.4 µM
same,TGI,[30],31.6 µM
same,GI50,[31],17.2 µM
same,TGI,[31],36.2 µM
same,GI50,[32],17.5 µM
same,TGI,[32],38.8 µM
same,GI50,[33],17.3 µM
same,TGI,[33],36.4 µM
same,GI50,[34],32.1 µM
same,TGI,[34],> 100 µM
same,GI50,[35],12.9 µM
same,TGI,[35],38.4 µM
same,GI50,[36],6.6 µM
same,TGI,[36],27 µM
same,GI50,[37],> 100 µM
same,TGI,[37],> 100 µM
same,GI50,[38],19.8 µM
same,TGI,[38],46.4 µM
same,GI50,[39],5.11 µM
same,TGI,[39],21.9 µM
same,GI50,[40],14.8 µM
same,TGI,[40],37 µM
same,GI50,[41],16.9 µM
same,TGI,[41],35.6 µM
same,GI50,[42],18 µM
same,TGI,[42],36.4 µM
same,GI50,[43],17.7 µM
same,TGI,[43],51.6 µM
same,GI50,[44],15.6 µM
same,TGI,[44],30.9 µM
same,GI50,[45],17.3 µM
same,TGI,[45],33 µM
same,GI50,[46],42.7 µM
same,TGI,[46],> 100 µM
same,GI50,[47],17.8 µM
same,TGI,[47],37.6 µM
same,GI50,[48],14.9 µM
same,TGI,[48],31.5 µM
same,GI50,[49],29.4 µM
same,TGI,[49],> 100 µM
same,GI50,[50],5.88 µM
same,TGI,[50],94.5 µM
same,GI50,[51],17.4 µM
same,TGI,[51],32 µM
same,GI50,[52],15.2 µM
same,TGI,[52],34.9 µM
same,GI50,[53],> 100 µM
same,TGI,[53],> 100 µM
same,GI50,[54],18.2 µM
same,TGI,[54],39.7 µM
same,GI50,[55],15.2 µM
same,TGI,[55],32.1 µM
same,GI50,[57],13.7 µM
same,TGI,[57],26.7 µM
same,GI50,[58],14.4 µM
same,TGI,[58],28.2 µM
same,GI50,[59],15.2 µM
same,TGI,[59],30.2 µM
